The text below walks through data of patent US5707679A, “Metal propionates for use as animal feed supplements” (priority 1995, dated 1998).

Read-outs that look alike come from different tables or passages of the source.

For data set [1] the following is noted: cited from earlier work; for biological availability vs inorganic salts (in words): polyvalent metal ions from metal-amino acid complexes; for absorption of metal cations in the gastrointestinal tract (in words): in vivo.
Data set [2] is described as follows: Performance of finishing cattle (Study 1: weight, gain, feed intake, gain/feed). The class given is in vivo, Angus crossbred steers. Further details: Average daily gain: unit not given here. The note with it: finishing steers; for Final weight / Initial weight: 25 ppm supplemental zinc; for Final weight: 140-day study; for Initial weight: baseline. An excerpt:
Fifty-six Angus crossbred steers were used in this study. Steers were purchased from either a feeder calf sale […] a preconditioned sale. Steers were blocked by sale type and weight, and then randomly assigned to a feed regimen. […] All regimens provided 25 ppm of supplemental zinc. Steers were housed in pens containing seven steers each.
Supplemental protein was supplied from a combination of soybean meal and urea. Steer weights were obtained on two consecutive days at the beginning and the end of the 140-day study. Interim weights were taken at 28-day intervals. Feed intake was measured daily. Blood and rumen fluid samples were obtained from 10 steers per treatment approximately two hours post feeding on day 42 of the study. Samples were analyzed for plasma and rumen fluid soluble zinc concentrations. Data were analyzed statistically by least square analysis of variance.

Data set [3] in a line: Performance of growing cattle (Study 2: weight, gain, feed intake, gain/feed). The conditions noted are these: for Average daily gain / Feed intake / Gain/feed / Final weight / Initial weight: growing steers; for Final weight / Initial weight: 25 ppm supplemental zinc; for Initial weight: baseline. The class given is in vivo, Angus steers. The text has this:
Thirty-six Angus steers with an average body weight of 268 kg were stratified by weight and randomly assigned to feed regimens. […] Zinc was supplemented in all treatments to provide 25 ppm of supplemental zinc.
Steers were housed in pens of 12 steers and individually fed using electronic gates. Each pen contained an equal number of steers from each dietary regimen. Steers were fed a basal corn silage-based growing diet supplemented with protein, minerals and vitamins. Diets were offered ad libitum.
Body weights were obtained on two consecutive days at the initiation and termination of the 112-day study. Interim weights were taken at 28-day intervals. Blood and rumen fluid samples were obtained on day 42 of the study for determination of plasma and rumen fluid soluble zinc concentrations. Data were statistically analyzed by least square analysis of variance.

Data set [4] in a line: Comparative zinc bioavailability trial in day-old broilers (growth, feed conversion, bone ash, tibia ash zinc, plasma zinc). The note with it: for Relative Biological Availability: Feed conversion (corr.): 3-21 days; for Relative Biological Availability: Body weight gain / Relative Biological Availability: Bone ash / Relative Biological Availability: Ending body weight: 21 days. How it is done: Each zinc treatment was replicated eight times and each pen contained ten male birds.
Basal feeds and zinc compound were mixed in a horizontal feed mixer providing the desired ingredient composition as shown in Table 2. The broilers were fed the rations for 21 days. Feed weights were taken during the trial. Body weights were measured at the beginning and at the end of the trial. On day 21, zinc levels in the blood and tibia ash were determined. The assay procedures for total tibia zinc content or concentration to assess zinc utilization are similar to those used by Wedekind et al., J. Anim. Sci., 70:178-187 (1992). The data were analyzed according to the SAS statistical package.
Chick growth parameters and zinc levels in the blood and tibia ash were used as criteria to determine the biological availability of zinc. […] The biological availability of zinc sulfate was arbitrarily set at 100%.

The conditions of data set [5]: chickens; cited from earlier work.
For data set [6] the following is noted: bovine, in vivo; cited from earlier work.
The conditions of data set [7]: in vivo; cited from earlier work.
Where [8] appears, read: 0 to 28 days, propionate vs. sulfate P < 0.05, vs. methionine P < 0.10.
Setting [9] is: 55 to 112 days (so in the source).
Setting [10] is: 0 to 28 days, propionate vs. methionine P < 0.05, vs. sulfate P < 0.10 (as footnoted).
[11] abbreviates: 29 to 56 days, propionate vs. methionine P < 0.05.
The mark [12] stands for this setting: 29 to 56 days, propionate vs. sulfate P < 0.05, vs. methionine P < 0.10.
Setting [13] is: 57 to 84 days, propionate vs. sulfate P < 0.10.
[14] abbreviates: Total (0 to 112 days), propionate vs. sulfate P < 0.05, vs. methionine P < 0.10.
Setting [15] is: zinc sulfate arbitrarily set at 100%.
The mark [16] stands for this setting: day 21, zinc sulfate arbitrarily set at 100%.

Consider `CSCC[C@H](N)C(=O)O.O=S(=O)([O-])O.O=S(=O)([O-])O.[Zn+2]` [Zinc methionine, Zinc methionine bisulfate], for which the “biological availability vs inorganic salts (in words)” value in data set [1] is on record as “more biologically available to the animal than are the same ions provided from inorganic salts”. The Average daily gain in data set [2] (0 to 28 days) is given as 1.32; in data set [2] (29 to 56 days) it was 1.45; in data set [2] (57 to 84 days) it was 1.57; in data set [2] (85 to 112 days) it was 0.97; in data set [2] (113 to 140 days), 1.22; in data set [2] (Total (0 to 140 days)) it was 1.31. For the same molecule, the Average daily gain in data set [3] (0 to 28 days) came out at 1.33 kg; in data set [3] (setting [11]) it was 1.18 kg; in data set [3] (57 to 84 days), 0.87 kg; in data set [3] (85 to 112 days), 1.34 kg; in data set [3] (Total (0 to 112 days)) it was 1.18 kg. Also, the Feed intake in data set [2] (0 to 28 days) came to 6.35 kg/day; in data set [2] (29 to 56 days), 7.76 kg/day; in data set [2] (57 to 84 days) it was 6.43 kg/day; in data set [2] (85 to 112 days) it was 8.51 kg/day; in data set [2] (113 to 140 days), 6.59 kg/day; in data set [2] (Total (0 to 140 days)) it was 7.13 kg/day. In addition, the Feed intake came to 8.11 kg/day in data set [3] (0 to 28 days); 9.03 kg/day in data set [3] (29 to 56 days); 8.62 kg/day in data set [3] (setting [13]); 8.56 kg/day in data set [3] (85 to 112 days); 8.58 kg/day in data set [3] (Total (0 to 112 days)). The Gain/feed in data set [2] (setting [8]) was 0.208; in data set [2] (29 to 56 days), 0.186; in data set [2] (setting [9]), 0.115; in data set [2] (57 to 84 days), 0.244; in data set [2] (113 to 140 days) it was 0.184; in data set [2] (Total (0 to 140 days)), 0.183. Moreover, the Gain/feed in data set [3] (setting [10]) is 0.164; in data set [3] (setting [12]) it was 0.132; in data set [3] (57 to 84 days), 0.104; in data set [3] (85 to 112 days), 0.158; in data set [3] (setting [14]), 0.139. Also, the figures for the Final weight in data set [2] and in data set [3] (112-day study) were 487.6 kg and 399.6 kg, respectively. For the same molecule, the Initial weight in data set [2] amounted to 304.7 kg; in data set [3] it was 267.7 kg. Also, in data set [3] (29 to 56 days, methionine vs propionate (P<0.05)), the “gains, second 28-day period (in words)” value is “gains were greater (P<0.05) in steers fed zinc methionine compared with those fed zinc propionate”. The “Gains for the entire study (in words)” value in data set [3] (112-day study) is on record as “tended to be higher for steers fed zinc methionine”. The “feed consumption (in words)” value in data set [3] (total study period, vs zinc sulfate (P<0.10)) is given as “consumed more (P<0.10) feed over the total study period than steers fed zinc sulfate”. The “Relative Biological Availability: Feed conversion (corr.)” value in data set [4] (setting [15]) was found to be 90.38%. Moreover, the “Relative Biological Availability: Body weight gain” value in data set [4] (setting [15]) was 131.52%. The “Relative Biological Availability: Bone ash” value in data set [4] (setting [15]) worked out at 113.95%. The “Relative Biological Availability: Ending body weight” value in data set [4] (setting [15]) was found to be 132.46%. Further, in data set [4] (day 21), the “levels of zinc in the blood and tibia ash (in words)” value was “comparable levels of zinc in the blood and tibia ash”. The “Relative Biological Availability: Plasma Zinc” value in data set [4] (setting [16]) is recorded as 124.00%. In data set [4] (setting [16]), the “Relative Biological Availability: Tibia ash zinc” value is listed as 123.99%.

As to `O=S(=O)([O-])[O-].[Zn+2]` [Zinc sulfate], the Average daily gain in data set [2] (0 to 28 days) is given as 1.26; in data set [2] (29 to 56 days) it was 1.46; in data set [2] (57 to 84 days), 1.52; in data set [2] (85 to 112 days) it was 1.19; in data set [2] (113 to 140 days), 1.24; in data set [2] (Total (0 to 140 days)), 1.33. The Average daily gain in data set [3] (0 to 28 days) is 1.34 kg; in data set [3] (setting [11]) it was 1.10 kg; in data set [3] (57 to 84 days), 0.72 kg; in data set [3] (85 to 112 days), 1.36 kg; in data set [3] (Total (0 to 112 days)) it was 1.13 kg. Further, the Feed intake in data set [2] (0 to 28 days) came out at 6.28 kg/day; in data set [2] (29 to 56 days), 7.51 kg/day; in data set [2] (57 to 84 days), 6.21 kg/day; in data set [2] (85 to 112 days), 8.33 kg/day; in data set [2] (113 to 140 days) it was 6.60 kg/day; in data set [2] (Total (0 to 140 days)), 6.99 kg/day. Also, the Feed intake in data set [3] (0 to 28 days) came to 7.67 kg/day; in data set [3] (29 to 56 days), 8.13 kg/day; in data set [3] (setting [13]), 7.62 kg/day; in data set [3] (85 to 112 days) it was 7.86 kg/day; in data set [3] (Total (0 to 112 days)) it was 7.82 kg/day. Moreover, the Gain/feed in data set [2] (setting [8]) is 0.201; in data set [2] (29 to 56 days), 0.195; in data set [2] (setting [9]), 0.142; in data set [2] (57 to 84 days), 0.244; in data set [2] (113 to 140 days) it was 0.189; in data set [2] (Total (0 to 140 days)) it was 0.191. For the same molecule, the Gain/feed in data set [3] (setting [10]) is recorded as 0.178; in data set [3] (setting [12]), 0.137; in data set [3] (57 to 84 days), 0.095; in data set [3] (85 to 112 days), 0.174; in data set [3] (setting [14]), 0.145. Also, the values for the Final weight in data set [2] and in data set [3] (112-day study) were 489.6 kg and 391.8 kg, respectively. The values for the Initial weight in data set [2] and in data set [3] were 303.0 kg and 265.5 kg, respectively. Further, the “Relative Biological Availability: Feed conversion (corr.)” value in data set [4] (setting [15]) stood at 100.00%. The “Relative Biological Availability: Body weight gain” value in data set [4] (setting [15]) was found to be 100.00%. The “Relative Biological Availability: Bone ash” value in data set [4] (setting [15]) is listed as 100.00%. Further, the “Relative Biological Availability: Ending body weight” value in data set [4] (setting [15]) is 100.00%. Also, in data set [4] (chicken, in vivo, 30240 min), the “Relative Biological Availability: Plasma Zinc” value turned out to be 100.00%. The “Relative Biological Availability: Tibia ash zinc” value in data set [4] (chicken, in vivo, 30240 min) is on record as 100.00%.

As for `CC(=O)[O-].CC(=O)[O-].[Zn+2]` [zinc acetate, Zinc acetate], the “toxicity (in words)” value in data set [5] was “toxic to chickens”.

As to `O=C([O-])CC(O)(CC(=O)[O-])C(=O)[O-].O=C([O-])CC(O)(CC(=O)[O-])C(=O)[O-].[Zn+2].[Zn+2].[Zn+2]` [zinc citrate], the “absorption of metal cations in the gastrointestinal tract (in words)” value in data set [1] was “variable results, enhancing absorption in one study and having no effect in others”.

As for `NCCCC[C@H](N)C(=O)O.[Zn]` [zinc-lysine], in data set [1], the “biological availability vs inorganic salts (in words)” value is given as “more biologically available to the animal than are the same ions provided from inorganic salts”.

As to zinc picolinate, the “absorption of metal cations in the gastrointestinal tract (in words)” value in data set [1] was “variable results, enhancing absorption in one study and having no effect in others”. Moreover, the “absorption of zinc (in words)” value is “not in cattle” in data set [6]; “enhance the absorption of zinc in humans and rats” in data set [7].
